These results are taken from patent publication US20120088772A1, “NOVEL PHARMACEUTICAL COMPOSITION FOR PREVENTION AND/OR TREATMENT OF ATTENTION DEFICIT/HYPERACTIVITY DISORDER” (ASTELLAS PHARMA INC., priority 2009, published 2012).

In data set [1] the test system is spontaneously hypertensive stroke-prone rats (SHRSP). Put plainly: Passive avoidance response test with SHRSP (attention deficit/hyperactivity disorder model). The format is in vivo, rat. The conditions noted are these: for Minimum effective dose: 30 min before test; for Effect on cumulative entry latency of SHRSP: sum of entry latency of 2nd to 5th trial, compared with solvent group. Here is the method: Verification of the therapeutic effect on attention deficit/hyperactivity disorder was carried out using spontaneously hypertensive stroke-prone rats (SHRSP). […] The method of Fox et al. (Fox, G. B. et al., Behay. Brain. Res., 131: 151-161, 2002) was partially modified, and the drug action on attention deficit/hyperactivity disorder was verified using a passive avoidance response test with SHRSP. That is, a solvent (vehicle), or dilutions prepared by diluting methylphenidate, compound (1), compound (2), compound (3), compound (4), and compound (5), with a solvent at multiple concentrations were administered to the rats in each group. Methylphenidate was subcutaneously administered, and compounds (1) to (5) were orally administered. As the solvent, physiological saline was used for methylphenidate and a 0.5% aqueous solution of methylcellulose was used for compounds (1) to (5). After 30 minutes of each drug administration, rats were placed in the bright room of the passive avoidance response measurement apparatus, and the time required for the rat to enter the dark room (entry latency) was measured. The longest time for measurement was 180 seconds. When rats entered in the dark room, a very weak electric current was forced to flow from a foot grid in the dark room. This trial was repeated five times, and the sum of the entry latency from 2nd time to 5th time (cumulative entry latency) was adopted as an indicator of the therapeutic effect on attention deficit/hyperactivity disorder. The test of significance difference was carried out between the solvent administered group and the drug administered groups, using Dunnett's test.

Data set [2] addresses T1, BEC1 potassium channel (Homo sapiens, UniProt Q9ULD8).
T1 sequence (Q9ULD8 1-1083): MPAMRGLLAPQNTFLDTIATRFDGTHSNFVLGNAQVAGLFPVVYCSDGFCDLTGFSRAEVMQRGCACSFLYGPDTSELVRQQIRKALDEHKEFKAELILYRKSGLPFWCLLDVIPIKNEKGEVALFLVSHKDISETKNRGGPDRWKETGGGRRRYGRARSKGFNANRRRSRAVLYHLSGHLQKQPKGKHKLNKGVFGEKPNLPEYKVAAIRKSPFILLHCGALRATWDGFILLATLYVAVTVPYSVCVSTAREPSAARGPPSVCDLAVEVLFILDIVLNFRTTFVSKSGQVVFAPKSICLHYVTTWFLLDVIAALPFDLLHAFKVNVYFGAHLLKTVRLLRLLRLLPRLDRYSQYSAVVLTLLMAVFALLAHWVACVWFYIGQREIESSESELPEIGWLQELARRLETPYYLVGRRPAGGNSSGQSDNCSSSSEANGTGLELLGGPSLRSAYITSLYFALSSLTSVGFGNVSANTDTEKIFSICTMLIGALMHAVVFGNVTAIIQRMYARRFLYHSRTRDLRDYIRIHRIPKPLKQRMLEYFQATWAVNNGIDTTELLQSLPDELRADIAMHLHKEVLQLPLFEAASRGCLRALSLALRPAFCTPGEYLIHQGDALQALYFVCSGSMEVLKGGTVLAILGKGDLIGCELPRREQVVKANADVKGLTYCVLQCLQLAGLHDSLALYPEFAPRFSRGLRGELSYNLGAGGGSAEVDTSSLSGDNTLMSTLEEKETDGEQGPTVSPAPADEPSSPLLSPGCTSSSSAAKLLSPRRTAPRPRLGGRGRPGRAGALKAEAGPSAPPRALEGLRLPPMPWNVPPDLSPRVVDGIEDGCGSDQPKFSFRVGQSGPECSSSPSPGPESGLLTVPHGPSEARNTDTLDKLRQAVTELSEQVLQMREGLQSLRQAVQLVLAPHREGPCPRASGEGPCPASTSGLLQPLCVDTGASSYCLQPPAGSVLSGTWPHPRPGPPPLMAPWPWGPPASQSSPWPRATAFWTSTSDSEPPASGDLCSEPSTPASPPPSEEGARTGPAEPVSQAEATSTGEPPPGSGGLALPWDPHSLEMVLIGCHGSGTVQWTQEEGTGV
Put plainly: BEC1 inhibitory activity by 86Rb ion release from BEC1 expressing cells. The format is cell-based. Set-up: expressed in transfected cells. The settings on record: 86Rb release, BEC1 stably expressing CHO (dhfr-deficient) cells, 100 mM KCl stimulation; read-out: BEC1 Inhibittory Activity IC50. On the procedure: Method for measuring BEC1 inhibitory activity of compound utilizing 86Rb ion release amount as indicator
The channel activity of BEC1 was measured according to the method described in U.S. Pat. No. 6,326,168 utilizing the release of the ions of radioactive isotope 86Rb from BEC1 expressing cells as an indicator. Specifically, when BEC1 expressing cells which had taken in 86Rb ions were stimulated with 100 mM KCl, the radioactivity released from the cells was designated as the channel activity of BEC1. 86Rb ions were incorporated into cells by culturing (3 hours, 37° C.) BEC1 stably expressing cells in the presence of 86RbCl (0.5 μCi/ml), and the unincorporated 86Rb ions were removed by washing the cells three times with HEPES buffered physiological saline (pH 7.4, 2.5 mM KCl). […]
The Cherenkov radioactivities of the extracellular fluid and the cell lysate were respectively measured, and the sum was designated as the total radioactivity. The release amount of 86Rb ions was expressed as the percentage of the radioactivity of the extracellular fluid to the total radiation activity. […] The inhibitory action of the compound was indicated as the IC50 value determined from the inhibition % (that is, (control value—test value)×100/(control value—blank value)). […]

The target of data set [3] is T1, BEC1 potassium channel. The conditions noted are these: background statement; cited from earlier work.
Where [4] appears, read: oral, smallest dose giving significantly longer cumulative entry latency than solvent group (Dunnett's test).

SMILES strings stand for the structures. pIC50: −log10 of the molar value. Counter-ions that a name gives are not always drawn.

By melting point is commonly meant the temperature of the solid-liquid transition. As for `Fc1ccc(Nc2nc(NCc3ncccn3)nc(Nc3ccc(F)cc3)n2)cc1` (as salt: HCl) [(2), N,N′-bis(4-fluorophenyl)-N″-(pyrimidin-2-ylmethyl)-1,3,5-triazine-2,4,6-triamine], the melting point is 183 to 186 °C.
In data set [1] (setting [4]), `Fc1ccc(Nc2nc(NCc3ncccn3)nc(Nc3ccc(F)cc3)n2)cc1` [(2), N,N′-bis(4-fluorophenyl)-N″-(pyrimidin-2-ylmethyl)-1,3,5-triazine-2,4,6-triamine] had a Minimum effective dose of 0.03 mg/kg p.o. In addition, the “Effect on cumulative entry latency of SHRSP” value (from here on “Effect … of SHRSP”) in data set [1] is on record as “prolonged the cumulative entry latency”.
In the same order, the values of `COc1ccc(Nc2nc(NCc3ncccn3)nc(Nc3ccc(F)cc3)n2)cc1` [(3), N-(4-fluorophenyl)-N′-(4-methoxyphenyl)-N″-(pyrimidin-2-ylmethyl)-1,3,5-triazine-2,4,6-triamine] are 0.3 mg/kg p.o and “prolonged the cumulative entry latency”.
As to `Fc1ccc(Nc2nc(NCc3ccncn3)nc(Nc3ccc(F)cc3)n2)cc1` [(4), N,N′-bis(4-fluorophenyl)-N″-(pyrimidin-4-ylmethyl)-1,3,5-triazine-2,4,6-triamine], the Minimum effective dose in data set [1] (setting [4]) came to 0.03 mg/kg p.o. For the same molecule, in data set [1], the “Effect … of SHRSP” value is “prolonged the cumulative entry latency”.
The pIC50 is −log10 of the IC50, conventionally taken in molar units. `Cl.Nc1nc(Nc2ccc(F)cc2)nc(N(Cc2ccnc(F)c2)c2ccccc2)n1` [(5), N-(4-fluorophenyl)-N′-[(2-fluoro-4-pyridyl)methyl]-N′-phenyl-1,3,5-triazine-2,4,6-triamine hydrochloride]: the negative logarithm of the IC50 (pIC50) on BEC1 potassium channel [2] is 7.07. In data set [1] (setting [4]), the Minimum effective dose is given as 3 mg/kg p.o. In data set [1], the “Effect … of SHRSP” value is “prolonged the cumulative entry latency”.
Take `Fc1ccc(Nc2nc(NCc3ncccn3)nc(Nc3ccccc3)n2)cc1` [Compound (1), N-(4-fluorophenyl)-N′-phenyl-N″-(pyrimidin-2-ylmethyl)-1,3,5-triazine-2,4,6-triamine]: the Minimum effective dose in data set [1] (setting [4]) is 0.1 mg/kg p.o. In addition, the “Effect … of SHRSP” value in data set [1] was “prolonged the cumulative entry latency”.
On to `COC(=O)C(c1ccccc1)C1CCCCN1` (stereo not shown) [Methylphenidate, methylphenidate, reference compound], for which the Minimum effective dose in data set [1] (subcutaneous (sc), smallest dose giving significantly longer cumulative entry latency than solvent group) is listed as 0.1(sc) mg/kg. In addition, in data set [1], the “Effect … of SHRSP” value was “prolonged the cumulative entry latency”.
For `C=C[C@H]1C[N@@]2CC[C@H]1C[C@@H]2[C@@H](O)c1ccnc2ccc(OC)cc12` [quinidine], the “Inhibition of BEC1 potassium channels” value on BEC1 potassium channel [3] is recorded as “do not inhibit”.
Regarding `CC[N+](CC)(CC)CC` [tetraethylammonium], the “Inhibition of BEC1 potassium channels” value on BEC1 potassium channel [3] is “do not inhibit”.
